Laboratory results from patent EP0044212B1, “Herbicidal o-alkylsulfonyloxy- and o-alkylsulfonylamino-benzenesulfonamides” (E.I. DU PONT DE NEMOURS AND COMPANY, priority 1980, dated 1982).

How the values were obtained:
Crabgrass [1] = test: Test B pre-emergence on Fallsington silt loam; type: in vivo, Digitaria sanguinalis; parameters: scale not given here; conditions: 28 days
Text: (§1) Two plastic bulb pans were filled with fertilized and limed Fallsington silt loam soil. One pan was planted with corn, sorghum, Kentucky bluegrass and several grassy weeds. The other pan was planted with cotton, soybeans, purple nutsedge (Cyperus rotundus), and several broadleaf weeds. The following grassy and broadleaf weeds were planted: crabgrass (Digitaria sanguinalis), barnyardgrass (Echinochloa crusgalli), wild oats (Avena fatua), johnsongrass (Sorghum halepense), dallisgrass (Paspalum dilatatum), giant foxtail (Setaria faberii), cheatgrass (Bromus secalinus), mustard (Brassica arvensis), cocklebur (Xanthium pensylvanicum), pigweed (Amaranthus retroflexus), morningglory (Ipomoea hederacea), cassia (Cassia tora), teaweed (Sida spinosa), velvetleaf (Abutilon theophrasti), and jimsonweed (Datura stramonium). A 12.5 cm diameter plastic pot was also filed with prepared soil and planted with rice and wheat. Another 12.5 cm pot was planted with sugarbeets. The above four containers were treated pre- emergence with several test compounds within the scope of the invention.
(§2) Twenty-eight days after treatment, the plants were evaluated and visually rated for response to the chemical treatments utilizing the rating system described previously for Test A. The data are summarized in Table B.

Barnyardgrass = test: Test B pre-emergence on Fallsington silt loam; type: in vivo, Echinochloa crusgalli; conditions: 28 days
Text: as §1, §2

Wild Oats [2] = test: Test B pre-emergence on Fallsington silt loam; type: in vivo, Avena fatua; parameters: scale not given here; conditions: 28 days
Text: as §1, §2

Johnsongrass = test: Test B pre-emergence on Fallsington silt loam; type: in vivo, Sorghum halepense; parameters: scale not given here; conditions: 28 days
Text: as §1, §2

Dallisgrass = test: Test B pre-emergence on Fallsington silt loam; type: in vivo, Paspalum dilatatum; parameters: scale not given here; conditions: 28 days
Text: as §1, §2

Giant Foxtail [3] = test: Test B pre-emergence on Fallsington silt loam; type: in vivo, Setaria faberii; conditions: 28 days
Text: as §1, §2

Ky. bluegrass = test: Test B pre-emergence on Fallsington silt loam; type: in vivo, Kentucky bluegrass; parameters: scale not given here; conditions: 28 days
Text: as §1, §2

Cheatgrass = test: Test B pre-emergence on Fallsington silt loam; type: in vivo, Bromus secalinus; conditions: 0.007 kg/ha, 28 days
Text: as §1, §2

Corn [4] = test: Test B pre-emergence on Fallsington silt loam; type: in vivo; parameters: scale not given here; conditions: 28 days
Text: as §1, §2

Sugarbeets [5] = test: Test B pre-emergence on Fallsington silt loam; type: in vivo; parameters: scale not given here; conditions: 28 days
Text: as §1, §2

Wheat [6] = test: Test B pre-emergence on Fallsington silt loam; type: in vivo; parameters: scale not given here; conditions: 28 days
Text: as §1, §2

Cocklebur = test: Test B pre-emergence on Fallsington silt loam; type: in vivo, Xanthium pensylvanicum; conditions: 28 days
Text: as §1, §2

Pigweed = test: Test B pre-emergence on Fallsington silt loam; type: in vivo, Amaranthus retroflexus; conditions: 28 days
Text: as §1, §2

Morningglory = test: Test B pre-emergence on Fallsington silt loam; type: in vivo, Ipomoea hederacea; conditions: 28 days
Text: as §1, §2

Cassia = test: Test B pre-emergence on Fallsington silt loam; type: in vivo, Cassia tora; conditions: 28 days
Text: as §1, §2

Soybean = test: Test B pre-emergence on Fallsington silt loam; type: in vivo, soybeans; conditions: 28 days
Text: as §1, §2

Corn [7] = test: Test F over-the-top soil/foliage treatment; type: in vivo; conditions: soil/foliage spray, ~14 days
Protocol: (§3) The test chemicals, dissolved in a non-phytotoxic solvent, were applied in an overall spray to the foliage and surrounding […] of selected plant species. […] Approximately fourteen days after treatment, all species were visually compared to untreated controls and rated for response to treatment.
(§4) All plant species were seeded in Woodstown sandy loam soil and grown in a greenhouse. The following species were grown in soil contained in plastic pots (25 cm diameter by 13 cm deep): soybeans, cotton, alfalfa, corn, rice, wheet, sorghum, velvetleaf (Abutilon theophrasti), sesbania (Sesbania exaltata), Cassia (Cassia tora), morningglory (Ipomoea hederacea), jimsonweed (Datura stramonium), cocklebur (Xanthium pensylvanicum), crabgrass (Digitaria spp.), nutsedge (Cyperus rotundus), barnyardgrass (Echinochloa crusgalli), giant foxtail (Setaria faberii) and wild oats (Avena fatua). The following species were grown in soil in a paper cup (12 cm diameter by 13 cm deep): sunflower, sugarbeets, and mustard. All plants were sprayed approximately 14 days after planting.

Mustard = test: Test F over-the-top soil/foliage treatment; type: in vivo; conditions: soil/foliage spray; 0.007 kg/ha; ~14 days
Protocol: as §3, §4

Sugarbeets [8] = test: Test F over-the-top soil/foliage treatment; type: in vivo; conditions: soil/foliage spray; 0.007 kg/ha; ~14 days
Protocol: as §3, §4

Sunflower = test: Test F over-the-top soil/foliage treatment; type: in vivo; conditions: soil/foliage spray; 0.007 kg/ha; ~14 days
Protocol: as §3, §4

Sesbania = test: Test F over-the-top soil/foliage treatment; type: in vivo, Sesbania exaltata; parameters: scale not given here; conditions: soil/foliage spray, ~14 days
Protocol: as §3, §4

Alfalfa = test: Test F over-the-top soil/foliage treatment; type: in vivo; parameters: scale not given here; conditions: soil/foliage spray, ~14 days
Protocol: as §3, §4

Sorghum = test: Test F over-the-top soil/foliage treatment; type: in vivo; parameters: scale not given here; conditions: soil/foliage spray, ~14 days
Protocol: as §3, §4

Jimsonweed = test: Test F over-the-top soil/foliage treatment; type: in vivo, Datura stramonium; conditions: soil/foliage spray; 0.003 kg/ha; ~14 days
Protocol: as §3, §4

Crabgrass [9] = test: Test F over-the-top soil/foliage treatment; type: in vivo, Digitaria spp.; parameters: scale not given here; conditions: soil/foliage spray, ~14 days
Protocol: as §3, §4

Nutsedge = test: Test F over-the-top soil/foliage treatment; type: in vivo, Cyperus rotundus; parameters: scale not given here; conditions: soil/foliage spray, ~14 days
Protocol: as §3, §4

Wheat [10] = test: Test F over-the-top soil/foliage treatment; type: in vivo, wheet; parameters: scale not given here; conditions: soil/foliage spray, ~14 days
Protocol: as §3, §4

Giant Foxtail [11] = test: Test F over-the-top soil/foliage treatment; type: in vivo, Setaria faberii; parameters: scale not given here; conditions: soil/foliage spray, ~14 days
Protocol: as §3, §4

Wild Oats [12] = test: Test F over-the-top soil/foliage treatment; type: in vivo, Avena fatua; parameters: scale not given here; conditions: soil/foliage spray, ~14 days
Protocol: as §3, §4

Cc1cc(C)nc(NC(=O)NS(=O)(=O)c2ccccc2OS(C)(=O)=O)n1 [Compound 3, N-[(4,6-dimethylpyrimidin-2-yl)aminocarbonyl]-2-hydroxybenzenesulfonamide, methanesulfonate]
Crabgrass response rating (Crabgrass [1]; 0.007 kg/ha): 0
Crabgrass response rating (Crabgrass [1]; 0.015 kg/ha): 0
Crabgrass response rating (Crabgrass [1]; 0.03 kg/ha): 5G
Crabgrass response rating (Crabgrass [1]; 0.12 kg/ha): 6G
Barnyardgrass response rating (Barnyardgrass; 0.007 kg/ha): 2G
Barnyardgrass response rating (Barnyardgrass; 0.015 kg/ha): 2G
Wild Oats response rating (Wild Oats [2]; 0.007 kg/ha): 0
Wild Oats response rating (Wild Oats [2]; 0.015 kg/ha): 0
Wild Oats response rating (Wild Oats [2]; 0.03 kg/ha): 10C
Wild Oats response rating (Wild Oats [2]; 0.12 kg/ha): 10C
Johnsongrass response rating (Johnsongrass; 0.007 kg/ha): 0
Johnsongrass response rating (Johnsongrass; 0.015 kg/ha): 3G
Johnsongrass response rating (Johnsongrass; 0.03 kg/ha): 10C
Johnsongrass response rating (Johnsongrass; 0.12 kg/ha): 10C
Dallisgrass response rating (Dallisgrass; 0.007 kg/ha): 0
Dallisgrass response rating (Dallisgrass; 0.015 kg/ha): 3G
Dallisgrass response rating (Dallisgrass; 0.03 kg/ha): 6G
Giant Foxtail response rating (Giant Foxtail [3]; 0.007 kg/ha): 0
Giant Foxtail response rating (Giant Foxtail [3]; 0.015 kg/ha): 3G
Giant Foxtail response rating (Giant Foxtail [3]; 0.03 kg/ha): 3C
Ky. bluegrass response rating (Ky. bluegrass; 0.007 kg/ha): 0
Ky. bluegrass response rating (Ky. bluegrass; 0.015 kg/ha): 2G
Ky. bluegrass response rating (Ky. bluegrass; 0.03 kg/ha): 10C
Cheatgrass response rating (Cheatgrass): 0
Corn response rating (Corn [4]; 0.007 kg/ha): 0
Corn response rating (Corn [4]; 0.015 kg/ha): 0
Corn response rating (Corn [4]; 0.03 kg/ha): 10C
Corn response rating (Corn [4]; 0.12 kg/ha): 10C
Sugarbeets response rating (Sugarbeets [5]; 0.015 kg/ha): 4G
Sugarbeets response rating (Sugarbeets [5]; 0.03 kg/ha): 10C
Sugarbeets response rating (Sugarbeets [5]; 0.12 kg/ha): 10C
Wheat response rating (Wheat [6]; 0.007 kg/ha): 0
Wheat response rating (Wheat [6]; 0.015 kg/ha): 0
Wheat response rating (Wheat [6]; 0.03 kg/ha): 5G
Cocklebur response rating (Cocklebur; 0.007 kg/ha): 0
Cocklebur response rating (Cocklebur; 0.015 kg/ha): 0
Cocklebur response rating (Cocklebur; 0.03 kg/ha): 7G
Pigweed response rating (Pigweed; 0.007 kg/ha): 0
Pigweed response rating (Pigweed; 0.12 kg/ha): 10C
Morningglory response rating (Morningglory; 0.007 kg/ha): 3G
Morningglory response rating (Morningglory; 0.015 kg/ha): 3G
Morningglory response rating (Morningglory; 0.03 kg/ha): 8G
Cassia response rating (Cassia; 0.007 kg/ha): 0
Cassia response rating (Cassia; 0.015 kg/ha): 0
Soybean response rating (Soybean; 0.007 kg/ha): 0
Soybean response rating (Soybean; 0.015 kg/ha): 0
Corn response rating (Corn [7]; 0.007 kg/ha): 9G
Corn response rating (Corn [7]; 0.06 kg/ha): 10C
Mustard response rating (Mustard): 10C
Sugarbeets response rating (Sugarbeets [8]): 10C
Sunflower response rating (Sunflower): 10C
Sesbania response rating (Sesbania; 0.015 kg/ha): 9C
Sesbania response rating (Sesbania; 0.06 kg/ha): 9C
Alfalfa response rating (Alfalfa; 0.007 kg/ha): 7G
Alfalfa response rating (Alfalfa; 0.015 kg/ha): 8C
Alfalfa response rating (Alfalfa; 0.06 kg/ha): 9C
Sorghum response rating (Sorghum; 0.015 kg/ha): 9C
Sorghum response rating (Sorghum; 0.06 kg/ha): 10C
Jimsonweed response rating (Jimsonweed): 0
Crabgrass response rating (Crabgrass [9]; 0.003 kg/ha): 0
Crabgrass response rating (Crabgrass [9]; 0.015 kg/ha): 0
Nutsedge response rating (Nutsedge; 0.003 kg/ha): 5G
Nutsedge response rating (Nutsedge; 0.007 kg/ha): 7G
Wheat response rating (Wheat [10]; 0.003 kg/ha): 3G
Wheat response rating (Wheat [10]; 0.007 kg/ha): 6G
Wheat response rating (Wheat [10]; 0.015 kg/ha): 1C
Wheat response rating (Wheat [10]; 0.06 kg/ha): 8C
Giant Foxtail response rating (Giant Foxtail [11]; 0.003 kg/ha): 0
Giant Foxtail response rating (Giant Foxtail [11]; 0.007 kg/ha): 0
Wild Oats response rating (Wild Oats [12]; 0.003 kg/ha): 4G
Wild Oats response rating (Wild Oats [12]; 0.007 kg/ha): 5G
Wild Oats response rating (Wild Oats [12]; 0.06 kg/ha): 10C
